The values that follow come from PubChem BioAssay (NCI).

Test systems include MDA-MB-231 breast; HS 578T breast; SNB-75 CNS; CAKI-1 renal; PC-3 prostate; T-47D breast; SK-MEL-2 melanoma; SK-MEL-28 melanoma; U251 CNS; K-562 leukemia.
Common to all, as to test: DTP human tumour cell line panel, 48 h

SMILES strings stand for the structures. Where “and” joins values, the source holds several entries; their conditions need not be identical. Equal entries are not always repeated.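 These data come from cells grown in 96-well plates and exposed to compound for 48 hours at five concentrations. Abbreviation: GI50, concentration required for 50% inhibition of growth. Definition used: TGI = concentration required for complete inhibition of growth.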

Regarding `CSc1ccccc1C#Cc1ccccc1C#CCCCCO`, the GI50 – broadly, the concentration that inhibits growth by half – in the test on MDA-MB-231 breast was 2.57 µM; in the test with HS 578T breast it was 7.62 µM; in the test on SNB-75 CNS, 13.8 µM; in the test with CAKI-1 renal, 7.13 µM; in the test with PC-3 prostate, 16.2 µM; in the test on T-47D breast it was 15 µM. Besides, the GI50 with SK-MEL-2 melanoma is 17.9 µM; in the test on SK-MEL-28 melanoma it was 15.1 µM; with U251 CNS, 10.8 µM; with K-562 leukemia, 6.19 µM. Besides, the TGI (in general, the concentration at which net growth stops) was 13.2 µM in the test with MDA-MB-231 breast; 32.3 µM in the test on HS 578T breast; 28 µM in the test on SNB-75 CNS; 20.5 µM in the test on CAKI-1 renal; 38 µM with PC-3 prostate; 34.5 µM in the test with T-47D breast. For the same molecule, the TGI in the test on SK-MEL-2 melanoma stood at 35.4 µM; with SK-MEL-28 melanoma it was 31.2 µM; with U251 CNS, 22.7 µM; with K-562 leukemia, 54.4 µM.
With `Nc1nc(N)c(N=O)c(OCC2CCCCC2)n1`, the GI50 in the test with MDA-MB-231 breast was 8.07 µM; with HS 578T breast it was 2.81 µM; in the test on CAKI-1 renal, 3.99 µM; in the test with PC-3 prostate, 3.23 µM; in the test on T-47D breast, 4.09 µM; in the test on SK-MEL-2 melanoma, 8.52 µM. The GI50 in the test with SK-MEL-28 melanoma was 13.2 µM; in the test with U251 CNS, 13.9 µM. The TGI in the test on MDA-MB-231 breast was 77.9 µM and > 31.4 µM; with HS 578T breast, 21 µM and 46.1 µM; in the test on SNB-75 CNS, 42.3 µM and 50.2 µM; in the test on CAKI-1 renal, 34 µM and 78.9 µM; in the test with PC-3 prostate it was > 100 µM and 22.9 µM; in the test on T-47D breast it was > 58.6 µM and 23.9 µM. Moreover, the TGI was 32.8 µM and 24.6 µM in the test on SK-MEL-2 melanoma; > 100 µM and 76.5 µM in the test with SK-MEL-28 melanoma; > 100 µM and 52.5 µM in the test with U251 CNS; over 100 µM in the test with K-562 leukemia.
Consider `O=C(OCCBr)c1ccc(Cl)c([N+](=O)[O-])c1`, for which the GI50 in the test with MDA-MB-231 breast is 8.3 µM; with HS 578T breast, 3.13 µM; with SNB-75 CNS, 5.63 µM; with CAKI-1 renal it was 7.78 µM; with PC-3 prostate, 5.23 µM; with T-47D breast it was 2.29 µM. Besides, the GI50 is 16.3 µM in the test with SK-MEL-2 melanoma, 2.51 µM in the test on SK-MEL-28 melanoma, 1.71 µM in the test with U251 CNS and 3.15 µM in the test with K-562 leukemia. In addition, the total growth inhibition concentration (TGI) in the test with MDA-MB-231 breast was 21.6 µM; in the test with HS 578T breast it was over 26.4 µM; in the test on SNB-75 CNS, 12.2 µM; with CAKI-1 renal it was 23.1 µM; in the test on PC-3 prostate it was 12.8 µM; in the test with T-47D breast, 5.49 µM. Besides, the TGI in the test on SK-MEL-2 melanoma was 35.1 µM; with SK-MEL-28 melanoma, 5.42 µM; in the test with U251 CNS it was 3.2 µM; in the test on K-562 leukemia it was 13.2 µM.
As for `CCCCN(CCCC)c1ccc(C(=NC(C)CCCN(CC)CC)c2ccc(N(C)C)cc2)cc1` (stereo not drawn), the GI50 was 0.863 µM in the test with MDA-MB-231 breast; 0.884 µM in the test on HS 578T breast; 0.734 µM in the test with SNB-75 CNS; 1.17 µM in the test on CAKI-1 renal; 0.885 µM with PC-3 prostate; 0.809 µM in the test on T-47D breast. In addition, the GI50 with SK-MEL-2 melanoma was 0.814 µM; in the test on SK-MEL-28 melanoma, 0.939 µM; in the test with U251 CNS, 0.81 µM; with K-562 leukemia, 0.153 µM. Moreover, the TGI with MDA-MB-231 breast was 1.82 µM; with HS 578T breast it was 2.05 µM; in the test with SNB-75 CNS, 1.56 µM; in the test with CAKI-1 renal it was 3.41 µM; in the test on PC-3 prostate, 1.93 µM; in the test on T-47D breast, 1.89 µM. For the same molecule, the TGI is 1.81 µM in the test on SK-MEL-2 melanoma, 1.92 µM in the test on SK-MEL-28 melanoma, 1.58 µM in the test on U251 CNS and 0.549 µM with K-562 leukemia.
`O=C(CCCSc1nc(-c2ccccc2)cc(-c2ccc(Cl)cc2)n1)NO`: the GI50 in the test on MDA-MB-231 breast is 2.12 µM; with HS 578T breast, 4.78 µM; with SNB-75 CNS it was 2.08 µM; in the test on CAKI-1 renal, 0.355 µM; in the test with PC-3 prostate, 2.19 µM; with T-47D breast, 1.92 µM. Besides, the GI50 was 4.39 µM with SK-MEL-2 melanoma, 3.51 µM in the test on SK-MEL-28 melanoma, 1.66 µM in the test on U251 CNS and 1.51 µM in the test on K-562 leukemia. The TGI was determined as 11.6 µM with MDA-MB-231 breast; 24 µM with HS 578T breast; 10.4 µM with SNB-75 CNS; 9.36 µM in the test on CAKI-1 renal; 12.3 µM in the test with PC-3 prostate; 16.2 µM in the test on T-47D breast. The concentration for total growth inhibition (TGI) in the test on SK-MEL-2 melanoma is 18.5 µM; with SK-MEL-28 melanoma, 15.3 µM; in the test on U251 CNS, 12.7 µM; in the test on K-562 leukemia, 26.1 µM.
In the case of `CC(=O)O[C@H]1CC[C@@]2(C)[C@@H](CC[C@@H]3[C@@H]2CC[C@]2(C)C=C(C=O)C[C@@H]32)C1`, the GI50 in the test with MDA-MB-231 breast was 10.6 µM; with HS 578T breast it was 4.41 µM; in the test on SNB-75 CNS, 9.36 µM; in the test on CAKI-1 renal, 29.8 µM; in the test with PC-3 prostate, 6.53 µM; in the test with T-47D breast, 3.74 µM. Besides, the GI50 with SK-MEL-2 melanoma is 7.53 µM; in the test on SK-MEL-28 melanoma it was 3.98 µM; in the test on U251 CNS it was 2.02 µM; in the test on K-562 leukemia it was 3.74 µM. Moreover, the TGI in the test with MDA-MB-231 breast amounted to 27.5 µM; with HS 578T breast, 50.1 µM; in the test with SNB-75 CNS, 22.2 µM; in the test on CAKI-1 renal, 98.1 µM; with PC-3 prostate it was 27.5 µM; in the test with T-47D breast, 15.5 µM. Besides, the TGI is 23.1 µM with SK-MEL-2 melanoma, 13.5 µM in the test with SK-MEL-28 melanoma, 4.9 µM in the test with U251 CNS and 16.5 µM with K-562 leukemia.
As to `CCCCNC(=O)NS(=O)(=O)c1ccc(N2N=C(c3cc(C)ccc3C)CC2c2cc(OC)c(OC)c(OC)c2)cc1` (stereo not drawn), the GI50 with MDA-MB-231 breast was 2.36 µM; in the test on HS 578T breast, 2.2 µM; in the test with SNB-75 CNS, 2.12 µM; in the test on CAKI-1 renal it was 3.07 µM; in the test with PC-3 prostate it was 1.94 µM; in the test on T-47D breast, 3.91 µM. For the same molecule, the GI50 in the test with SK-MEL-2 melanoma is 2.2 µM; in the test on SK-MEL-28 melanoma, 1.97 µM; in the test with U251 CNS, 2.11 µM; with K-562 leukemia it was 3.14 µM. The TGI worked out at 6.39 µM with MDA-MB-231 breast; 5.78 µM in the test with HS 578T breast; 5.83 µM with SNB-75 CNS; 12.7 µM in the test on CAKI-1 renal; 10.4 µM in the test on PC-3 prostate; 18.4 µM with T-47D breast. For the same molecule, the TGI in the test on SK-MEL-2 melanoma came to 4.84 µM; in the test with SK-MEL-28 melanoma, 4.73 µM; with U251 CNS, 5.62 µM; with K-562 leukemia, 12.7 µM.
Regarding `O=C(COc1cccc(/C=C2\COc3ccc(Cl)cc3C2=O)c1)c1ccc(Cl)cc1`, the GI50 with MDA-MB-231 breast is 4.08 µM; in the test on HS 578T breast, 18.8 µM; with SNB-75 CNS it was 4.73 µM; with CAKI-1 renal it was 12.1 µM; in the test on PC-3 prostate, 12.4 µM; in the test with T-47D breast, 11.4 µM. Moreover, the GI50 with SK-MEL-2 melanoma is 7.4 µM; in the test with SK-MEL-28 melanoma it was 18.3 µM; in the test on U251 CNS it was 13.8 µM; with K-562 leukemia, 2.67 µM. The TGI with MDA-MB-231 breast amounted to 21.1 µM; in the test on HS 578T breast, 48.7 µM; in the test on SNB-75 CNS, 22.2 µM; in the test with CAKI-1 renal it was 24.5 µM; with PC-3 prostate, 28.9 µM; in the test with T-47D breast it was 26.1 µM. For the same molecule, the TGI with SK-MEL-2 melanoma is 21.1 µM; in the test with SK-MEL-28 melanoma, 32.2 µM; in the test on U251 CNS it was 26.7 µM; in the test on K-562 leukemia it was over 100 µM.
Turning to `c1ccc(CSc2nnc3c4ccccc4c4ccccc4c3n2)cc1`, the TGI with MDA-MB-231 breast is over 100 µM; in the test with HS 578T breast, over 100 µM; in the test on SNB-75 CNS, 21.6 µM; with CAKI-1 renal it was over 100 µM; in the test on PC-3 prostate, over 100 µM; in the test with T-47D breast, over 100 µM. The TGI was over 79.7 µM with SK-MEL-2 melanoma, over 100 µM in the test with SK-MEL-28 melanoma, over 100 µM with U251 CNS and over 100 µM in the test with K-562 leukemia.
As for `COC(=O)C1=C(OC(=O)c2ccc(Cl)cc2)C(C(=O)OC)[C@@]2(O)[C@@H](C(=O)OC)C(c3ccccc3Cl)C[C@@H]1[C@@H]2C(=O)OC` (stereo partly drawn), the GI50 in the test with MDA-MB-231 breast was 4.57 µM; with HS 578T breast, 3.79 µM; in the test on SNB-75 CNS, 5.05 µM; in the test with CAKI-1 renal it was 2.09 µM; in the test on PC-3 prostate, 37.2 µM; in the test on T-47D breast, 9.39 µM. Moreover, the GI50 is 2.51 µM in the test on SK-MEL-2 melanoma, 30.1 µM with SK-MEL-28 melanoma, 3.4 µM in the test on U251 CNS and 6 µM with K-562 leukemia. The TGI in the test on MDA-MB-231 breast is 17.5 µM; in the test with HS 578T breast, over 100 µM; with SNB-75 CNS it was 30.3 µM; in the test with CAKI-1 renal, 7.35 µM; with PC-3 prostate it was over 100 µM; in the test with T-47D breast, over 100 µM. The total growth inhibition concentration (TGI) in the test with SK-MEL-2 melanoma was 5.94 µM; in the test with SK-MEL-28 melanoma, over 100 µM; in the test on U251 CNS, 27 µM; in the test with K-562 leukemia, over 100 µM.
As for `CC1(C)CC[C@]2(C(=O)N3CCOCC3)CC[C@]3(C)C(=CC[C@@H]4[C@@]5(C)C/C(=C/c6ccncc6)C(=O)C(C)(C)[C@@H]5CC[C@]43C)[C@@H]2C1`, the GI50 is 3.06 µM in the test with MDA-MB-231 breast; 2.56 µM in the test on HS 578T breast; 3.21 µM in the test with SNB-75 CNS; 1.07 µM in the test on CAKI-1 renal; 0.375 µM with PC-3 prostate; 0.781 µM in the test with T-47D breast. Further, the GI50 in the test on SK-MEL-2 melanoma is 2.33 µM; with SK-MEL-28 melanoma, 1.84 µM; in the test with U251 CNS, 1.89 µM; with K-562 leukemia it was 0.637 µM. Besides, the TGI with MDA-MB-231 breast is 41.1 µM; in the test with HS 578T breast, over 100 µM; with SNB-75 CNS it was over 100 µM; in the test with CAKI-1 renal, over 100 µM; in the test with PC-3 prostate, 46.1 µM; with T-47D breast it was over 100 µM. The TGI was 7.27 µM in the test with SK-MEL-2 melanoma, 5.41 µM in the test with SK-MEL-28 melanoma, 10.3 µM in the test on U251 CNS and over 100 µM in the test on K-562 leukemia.
